Data on 7 compounds can be found in PMC11799930, “Discovery of potent measles virus fusion inhibitor peptides via structure-guided derivatization” (RSC Medicinal Chemistry, 2025).

Values after ≈ are worked out from the molar mass of the structure shown. “Also recorded” adds a separate entry of the source. Like-named read-outs stand apart in the source and are kept apart here. Where a SMILES comes first, the peptide text is derived from it. [ ]: non-standard residue; d: D form. The star is where a group is joined. Cbz = O=C(OCc1ccccc1)*; AEEA = NCCOCCOCC(=O)O

Series [1] addresses MeV-F (prefusion-stabilized ectodomain trimer). The series can be described thus: Surface plasmon resonance (SPR) binding to MeV-F. The note with it: peptides (EG-K derivatives) immobilized on sensor chip, MeV-F as analyte, 25 °C. Set-up: species or system Measles virus.
The subject of series [2] is MeV-EGFP. The series can be described thus: Virus-mediated cell-to-cell fusion assay (syncytia in Vero/hSLAM cells infected with MeV-EGFP). It is filed as cell-based, Measles virus. Particulars: 48 h, qualitative. The method, then:
(§1) To evaluate how modifying the C-terminus of FIP affects the interactions of FIP and MeV-F, we synthesized three FIP derivatives, named FIP-G3A, FIP-G3a, and FIP-NH2 (Fig. 2a). The inhibitory activities of the derivatives were evaluated using a virus-mediated cell-to-cell fusion assay (Fig. 2b). In this assay, Vero cells stably expressing hSLAM (Vero/hSLAM cells)[21] were infected with EGFP-recombinant MeV (MeV-EGFP) for 1 h at 37 °C, then the medium containing MeV-EGFP was replaced with a medium containing each FIP derivative and incubated at 37 °C for 48 h. The inhibitory activity was assessed based on the size and area of the syncytia observed by fluorescence microscopy, albeit qualitatively. […] To more quantitatively compare the inhibitory activity of FIP and FIP-NH2 against MeV infection in cells, a viral entry inhibition assay was conducted using a serially diluted compound, and the IC50 and IC90 values of the compounds were determined. In this assay, Vero/hSLAM cells were infected with inhibitor-treated MeV-EGFP at 37 °C for 1 h. Subsequently, the supernatant was replaced with a medium containing 100 μM of FIP, and the cells were further incubated at 37 °C for 48 h. Finally, the number of virus-infected cells was quantified using fluorescence microscopy. […]
Virus-mediated cell-to-cell fusion assay. Vero/hSLAM cells were cultured in 96 well plates (Thermo scientific cat#167008) overnight at 37 ℃. Vero/hSLAM cells were then infected with MeV-EGFP (200 pfu / well) for 1 h. The supernatant, including the virus, was replaced with 10% FBS/DMEM with or without 1, 10, 100 µM FIP or a FIP derivative. The images of cell-to-cell fusion were captured by fluorescence microscopy (BZ-X710, keyence) after incubation for 48 h at 37 ℃.

Series [3] has as its system MeV-EGFP. Particulars: viral entry inhibition assay; for IC50 / IC90: Vero/hSLAM cells, MeV-EGFP; for IC50: triplicate; for IC90: calculated from Hill coefficient and IC50. Here is the method:
as §1
pfu/well and incubated with peptide solution in 10% FBS/DMEM containing 0–1% DMSO for 30 min at room temperature. Vero/hSLAM cells were then infected with the inhibitor-treated MeV-EGFP for 1 h at 37 °C. The supernatant, including the virus, was replaced with 100 µM FIP (Peptide Institute, Inc. cat#4092) solution in 0–1% DMSO in 10% FBS/DMEM, and EGFP-positive cells were counted under fluorescence microscopy (BZ-X710, keyence) after incubation for 48 h at 37 ℃. The entry inhibition rate was calculated as 100 − (the number of sample EGFP positive cells − the number of cell-only control EGFP positive cells) / (the number of viral control EGFP positive cells − the number of cell-only control EGFP positive cells) × 100. This experiment was performed in triplicate. IC50 values were calculated using parameters determined by fitting the plot to a four-parameter logistic regression model (Hill equation) implemented in Python (Matplotlib and SciPy libraries). The equation used was: y = d + (a – d) / (1 + (x / c)b). x, y, a, b, c, and d represent peptide concentration, fraction of infected cells, maximum response, Hill coefficient (degree of cooperativity), IC50, and minimum response, respectively. Curve fitting was performed using the curve_fit function from the SciPy library, and IC90 values were calculated using the derived Hill coefficient and IC50 values. […]
(BZ-X710, keyence) after incubation for 48 h at 37 ℃. […]

A further series has as its target T1, MeV-F wild type (Measles virus, UniProt Q786F3).
T1 construct: wild-type full-length MeV-H (pCA7-ICH) and MeV-F; expressed in transfected cells; host or cells: Vero/hSLAM cells
It is filed as cell-based. The note with it: qualitative; for inhibition of syncytia formation: 24 h. The text has this:
To obtain new interactions, we designed and synthesized FIP-NH2 derivatives in which Gly residue is replaced with a D-amino acid residue shown in Fig. 3a (FIP-G3x-NH2, x = d, e, h, k, n, q, r, s, t). To avoid proteolytic degradation of the derivatized peptides, D-amino acid residues were adopted. Because FIP consists of hydrophobic structures, polar residues were recruited for replacing the Gly residue to avoid poor aqueous solubility of the resulting derivatives. The inhibitory activities of the synthesized derivatives were evaluated by cell-to-cell fusion assay. In this assay, each FIP derivative was added to the medium of Vero/hSLAM cells transiently expressing MeV-F, MeV-H, and EGFP, and the cells were incubated at 37 °C for 24 h. The cells were observed under a fluorescence microscope, and inhibition of the syncytia formation was qualitatively assessed based on the size and area of emitting fluorescence (Fig. 3b). We also synthesized and evaluated the reverse sequence of FIP, FIP-rev (Z-Gly-Phe-D-Phe-OH), and the enantiomer of FIP, FIP-enan (Z-Phe-D-Phe-Gly-OH), as negative controls.
Fig. 3 Chemical structures and cell-to-cell fusion assay of FIP and its derivatives using Vero/hSLAM cells expressing MeV-F and MeV-H. a) Chemical structures of FIP and its derivatives. b) A schematic illustration of cell-to-cell fusion assay. […] All the experiments were conducted in triplicate. […]
(BZ-X710, keyence) after incubation for 48 h at 37 ℃.
Cell-to-cell fusion assay using wild-type MeV-F plasmid. Vero/hSLAM cells in 96-well plate were transfected with 0.01 µg pCA7-ICH, 0.0375 µg pCA7-ICF and 0.3 µg pCA7 plasmid encoding EGFP (pCA7-EGFP) using VeroFect (0.695 µL, OZ Biosciences) in 10% FBS/DMEM when the confluency of the cells was about 90%. FIP or an FIP derivative in DMSO was added in each sample to 100 or 0.5 µM as the final […]
concentration. […]

A further series is described as follows: in vitro. Particulars: bovine.
The next series relates to MeV. Set-up: method as in PMID 7414950. The note with it: plaque assay for MeV; cited from earlier work.
Another series in a line: physchem. In kind it is physicochemical.
The conditions of series [4]: 1 μM inhibitor in serum.
The next series has as its target T2, E471S mutant of MeV-F (Measles virus, UniProt Q786F3, E471S).
T2 construct: Full-length E471S MeV-F was amplified through PCR and site-directed mutagenesis; expressed in transfected cells; host or cells: Vero cells per the methods
In words: Cell-to-cell fusion assay using MeV-F E471S mutant. It is filed as cell-based. The note with it: Fig. 4e, qualitative. The text has this:
To identify the plausible new interactions formed between FIP-G3r-NH2 and MeV-F, we conducted docking simulations using Autodock Vina.[22,23] First, we conducted a docking simulation of FIP and MeV-F to assess the reliability of the docking simulations (Fig. 4a). […] We then conducted a docking simulation of FIP-G3r-NH2 and MeV-F (Fig. 4c). We found a docking pose in which the binding conformation of the main chain and the aromatic ring of FIP-G3r-NH2 is similar to that of FIP (Fig. 4d). […] It should be noted that the MeV-F E471S mutant protein was synthetically produced for this experiment, and, to our knowledge, this mutant has not been reported as a natural variant. […]
pfu/well and incubated with peptide solution in 10% FBS/DMEM containing 0–1% DMSO for 30 min at room temperature. […] The supernatant, including the virus, was replaced with 100 µM FIP (Peptide Institute, Inc. cat#4092) solution in 0–1% DMSO in 10% FBS/DMEM, and EGFP-positive cells were counted under fluorescence microscopy (BZ-X710, keyence) after incubation for 48 h at 37 ℃. The entry inhibition rate was calculated as 100 − (the number of sample EGFP positive cells − the number of cell-only control EGFP positive cells) / (the number of viral control EGFP positive cells − the number of cell-only control EGFP positive cells) × 100. […]

As to `NC(=O)CNC(=O)[C@H](Cc1ccccc1)NC(=O)[C@@H](Cc1ccccc1)NC(=O)OCc1ccccc1` [FIP-NH2] (Cbz-[dF]-Phe-Gly-NH2), the Kd (commonly the constant that tells how readily two partners part at equilibrium) in series [1] worked out at 0.081 µM. Further, in the series on MeV-EGFP [2] (1 μM), the “inhibition of syncytia formation” value was “a little higher inhibitory activity than FIP”. Also, the “inhibitory activity against MeV-induced cell fusion compared with FIP” value in the series with MeV-EGFP [2] (100, 10 or 1 μM) is recorded as “did not decrease the inhibitory activity”. Moreover, in the series on MeV-EGFP [3], inhibition was half-maximal at 0.51 µM (IC50) and the IC90 (usually the point of the concentration-response curve where the effect stands at 90%) was 3.6 µM.
With Cbz-Phe-[dF]-Gly-OH [FIP-enan], the “inhibition of syncytia formation” value at MeV-F wild type (100 μM) is recorded as “lower inhibitory activity than FIP”.
Take `N=C(N)NCCC[C@@H](NC(=O)[C@H](Cc1ccccc1)NC(=O)[C@@H](Cc1ccccc1)NC(=O)OCc1ccccc1)C(=O)NCCOCCOCC(=O)N[C@@H](CCCCN)C(N)=O` [FIP-G3r-NH-EG-K] (Cbz-[dF]F[dR][AEEA]K-NH2): in series [1], the dissociation constant (Kd) worked out at 0.0066 µM.
As to `O=C(O)CNC(=O)[C@H](Cc1ccccc1)NC(=O)[C@@H](Cc1ccccc1)NC(=O)OCc1ccccc1` [FIP, Z-D-Phe-Phe-Gly, reference compound] (Cbz-[dF]-Phe-Gly-OH), the half-life (in general, how long it takes for the measured level to halve) at 1 μM in “in vitro” is above 24 h. Further, the IC50 – broadly, the concentration that inhibits the measured activity by half – was 0.2 µM with MeV and 1.3 µM in the series on MeV-EGFP [3]. In addition, the solubility (usually how much of the substance goes into solution per volume) in “physchem” was 98 ± 1 µM (≈ 49.3 µg/mL). For the same compound, the “inhibition of syncytia formation” value is given as “inhibited fusion only weakly” in the series with MeV-EGFP [2] (1 μM); “strongly inhibited syncytia formation” in the series on MeV-EGFP [2] (10 μM); “strongly inhibited syncytia formation” in the series with MeV-EGFP [2] (100 μM); “weakly inhibited syncytia formation” against MeV-F wild type (0.5 μM); “strongly inhibited syncytia formation” against MeV-F wild type (100 μM). Moreover, the IC90 in the series on MeV-EGFP [3] is 12 µM. Further, the “proteolytic stability in serum” value in [4] is on record as “high proteolytic stability”.
`NCCCC[C@H](NC(=O)COCCOCCNC(=O)CNC(=O)[C@H](Cc1ccccc1)NC(=O)[C@@H](Cc1ccccc1)NC(=O)OCc1ccccc1)C(N)=O` [FIP-NH-EG-K] (Cbz-[dF]FG[AEEA]K-NH2) had a Kd in [1] of 0.081 µM.
Compound `N=C(N)NCCC[C@@H](NC(=O)[C@H](Cc1ccccc1)NC(=O)[C@@H](Cc1ccccc1)NC(=O)OCc1ccccc1)C(N)=O` [FIP-G3r-NH2] (Cbz-[dF]-Phe-[dR]-NH2) had a half-life at 1 μM in “in vitro” above 24 h. Moreover, the “membrane fusion inhibitory activity” value at E471S mutant of MeV-F was “dropped to the same level as FIP”. Also, the equilibrium dissociation constant (Kd) in [1] came to 0.0066 µM. The same compound showed a solubility in the series “physchem” of 83 ± 4 µM (≈ 49.9 µg/mL). Further, the “inhibition of syncytia formation” value on MeV-F wild type (0.5 μM) was “higher inhibitory activity than FIP-NH2; also recorded: completely inhibited the syncytia formation”. The “membrane fusion inhibitory activity” value at MeV-F wild type (MeV-F wild type (WT), Fig. 4e) was “higher membrane fusion inhibitory activity than FIP”. Besides, in the series on MeV-EGFP [3], the IC50 stood at 0.21 µM and the 90% effect concentration (IC90) was 1.8 µM. The “fold higher inhibitory activity than FIP (IC50)” value with MeV-EGFP [3] (relative to FIP) is listed as “about six-fold”. The “proteolytic stability in serum” value in [4] is reported as “high proteolytic stability”.
Turning to Cbz-Gly-Phe-[dF]-OH [FIP-rev], at MeV-F wild type (100 μM), the “inhibition of syncytia formation” value was “lower inhibitory activity than FIP”.
